Laboratory results published in patent US20190374543A1, “Therapeutic Combinations of an Antifolate and a BTK Inhibitor” (Acerta Pharma B.V., priority 2016, published 2019).

Tests used:
Format in all cases: in vivo
[1] = molecular target: T1, BTK (Mus musculus, UniProt P35991); experiment: BTK occupancy in splenocytes collected after euthanasia; conditions: with vs without MTX co-treatment
T1 construct: from tissue; host or cells: splenocytes from spleens of collagen-induced-arthritis DBA/1 mice
T1 sequence (P35991 whole entry): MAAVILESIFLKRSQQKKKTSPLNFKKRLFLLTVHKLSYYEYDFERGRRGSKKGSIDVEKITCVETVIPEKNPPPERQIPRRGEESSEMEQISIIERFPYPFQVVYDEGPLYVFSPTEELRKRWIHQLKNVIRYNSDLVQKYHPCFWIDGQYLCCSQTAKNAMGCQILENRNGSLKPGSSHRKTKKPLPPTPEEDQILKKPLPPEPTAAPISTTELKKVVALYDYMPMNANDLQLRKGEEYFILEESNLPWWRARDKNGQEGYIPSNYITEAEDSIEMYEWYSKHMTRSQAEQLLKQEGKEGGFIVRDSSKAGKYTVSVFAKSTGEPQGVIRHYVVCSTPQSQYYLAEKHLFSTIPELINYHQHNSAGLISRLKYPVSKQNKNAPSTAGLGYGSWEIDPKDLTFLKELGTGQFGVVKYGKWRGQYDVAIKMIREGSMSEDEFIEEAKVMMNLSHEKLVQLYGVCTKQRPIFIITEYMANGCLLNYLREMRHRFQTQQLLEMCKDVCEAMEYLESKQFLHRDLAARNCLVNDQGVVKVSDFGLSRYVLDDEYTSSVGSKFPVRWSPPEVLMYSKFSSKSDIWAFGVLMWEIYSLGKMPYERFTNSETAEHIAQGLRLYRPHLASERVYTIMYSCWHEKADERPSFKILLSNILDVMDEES
From the text: (§1) On study day 43, mice were euthanized and necropsy specimens were obtained. After terminal bleeds, animals were euthanized by cervical dislocation. Fore paws, hind paws, and knees were harvested and placed in 10% neutral buffered formalin (NBF) for microscopy. Spleens were harvested from a subset of mice and processed for splenocytes.

[2] = test system: type II collagen arthritis; experiment: mouse type II collagen arthritis model: body weight, daily clinical arthritis scores (AUC), incidence
[3] = test system: type II collagen arthritis; experiment: histopathology of paws and knees in mouse type II collagen arthritis model; conditions: for Histopathology Summed Scores (All Joints): mean (SE)
From the text: as §1
After 1-2 days in fixative and 4-5 days in 5% formic acid for decalcification, tissues were trimmed, and processed for paraffin embedding. Paws were embedded in paraffin in the frontal plane and knees were embedded with the patella facing down. Ankles, if left attached to the hind paw, were also embedded in the frontal plane but in some instances were detached and sectioned in the sagittal plane for special purposes. Left/right pairs were typically embedded in the same block. Sections were then cut and stained with toluidine blue.
When scoring paws or ankles from mice with lesions of type II collagen arthritis, severity of changes as well as number of individual joints affected was considered. When only one to three joints of the paws or ankles out of a possibility of numerous metacarpal/metatarsal/digit or tarsal/tibiotarsal joints was affected, an arbitrary assignment of a maximum score of 0.5, 1, 2 or 3 for parameters below was given depending on severity of changes. If more than three joints were involved, the criteria below were applied to the most severely affected/majority of joints. In the case of knees, severity of changes in medial and lateral, as well as femoropatellar spaces, were considered.
The following parameters were scored according to the indicated criteria: Inflammation Score, Pannus Score, Cartilage Damage Score, Bone Resorption Score, and Periosteal New Bone Formation Score and Measurements. Unless otherwise indicated, criteria apply to both paws and knees. Mean values for each parameter are determined separately for the paws, knees, and the entire animal (if applicable).
The Inflammation Score was determined based on the following criteria for Paw Score and Knee Score.
The Paw Score was classified based on the following criteria: 0=Normal; 0.5=Very minimal, affects only 1 joint or minimal multifocal periarticular infiltration of inflammatory cells; 1=Minimal infiltration of inflammatory cells in synovium and periarticular tissue of affected joints; 2=Mild infiltration of inflammatory cells. If referring to paws, generally restricted to affected joints (1-3 affected); 3=Moderate infiltration with moderate edema. If referring to paws, restricted to affected joints, generally 3-4 joints and the wrist or ankle; 4=Marked infiltration affecting most areas with marked edema, 1 or 2 unaffected joints may be present; 5=Severe diffuse infiltration with severe edema affecting all joints (to some extent) and periarticular tissues.
The Knee Score was classified based on the following criteria: 0=Normal; 0.5=Very minimal, affects only one area of the synovium or minimal multifocal periarticular infiltration of inflammatory cells; 1=Minimal infiltration of inflammatory cells in synovium and periarticular tissue of affected synovial areas; 2=Mild diffuse infiltration of inflammatory cells; 3=Moderate diffuse infiltration of inflammatory cells; 4=Marked diffuse infiltration of inflammatory cells; 5=Severe diffuse infiltration of inflammatory cells.
The inflammatory infiltrate in mice and rats with type II collagen arthritis consists of neutrophils and macrophages with smaller numbers of lymphocytes when the lesions are in the acute to subacute phase. Tissue edema and neutrophil exudates within the joint space are common in the acute to subacute phase. As the inflammation progresses to chronic, mononuclear inflammatory cells (monocytes, lymphocytes) predominate and fibroblast proliferation, often with deposition of metachromatic matrix, occurs in synovium and periarticular tissue. Exudate is less common in the joint space.

[4] = 5 mg/kg Formula (2) alone, vs vehicle controls
[5] = Group 3: MTX vehicle + BTK inhibitor of formula (2) 1 mg/kg PO QD d28-43
[6] = Group 4: MTX vehicle + BTK inhibitor of formula (2) 5 mg/kg PO QD d28-43
[7] = Group 5: MTX 0.3 mg/kg PO QD d18-43 + BTK inhibitor of formula (2) vehicle
[8] = Group 6: MTX 0.5 mg/kg PO QD d18-43 + BTK inhibitor of formula (2) vehicle

CC#CC(=O)N1CCC[C@H]1c1nc(-c2ccc(C(=O)Nc3ccccn3)cc2)c2c(N)nccn12 [BTK inhibitor of Formula (2), (S)-4-(8-amino-3-(1-(but-2-ynoyl)pyrrolidin-2-yl)imidazo[1,5-c]pyrazin-1-yl)-N-(pyridin-2-yl)benzamide]
Btk occupancy in splenocytes [1]: the same in the presence or absence of MTX | disease-induced body weight loss (percent change from baseline) ([2]; 1 mg/kg Formula (2), vs vehicle controls, Day 36): significantly inhibited | daily clinical arthritis scores over time [2, 4]: differed significantly | inhibition of absolute body weight loss at study termination [2, 4]: 66% | reduction of arthritis scores AUC Days 18-43 [2, 4]: 62% | disease-induced body weight loss (percent change from baseline) ([2]; 5 mg/kg Formula (2), vs vehicle controls, Days 32-38 and 43): significantly inhibited | clinical arthritis scores ([2]; 5 mg/kg Formula (2), vs vehicle controls, Study Days 30-43): significantly reduced | Change in Body Weight (g) Day 18-43 [2, 5]: -0.19 g | Clinical Arthritis Score AUC Day 18-43 [2, 5]: 61.41 | Clinical Arthritis Score AUC Day 28-43 [2, 5]: 54.81 | Percent Incidence [2, 5]: 100% | Change in Body Weight (g) Day 18-43 [2, 6]: *0.12 g | Clinical Arthritis Score AUC Day 18-43 [2, 6]: *27.30 | Clinical Arthritis Score AUC Day 28-43 [2, 6]: *21.27 | Percent Incidence ([2]; Group 4: MTX vehicle + BTK inhibitor of formula (2) 5 mg/kg PO QD d28-43, at termination, 5 mg/kg): 42% | Percent Incidence ([2]; Group 4: MTX vehicle + BTK inhibitor of formula (2) 5 mg/kg PO QD d28-43, at termination, listed as BTK inhibitor of formula (2), 5 mg/kg): 42% | reduction of knee bone resorption [3, 4]: 90% | reduction of knee inflammation [3, 4]: 72% | reduction of knee pannus formation [3, 4]: 85% | reduction of summed knee histopathology scores [3, 4]: 74% | reduction of summed paw histopathology scores [3, 4]: 72% | reduction of summed six-joint mean histopathology scores [3, 4]: 73% | reductions of all paw histopathology parameters [3, 4]: 59-82% | reductions of all six-joint mean histopathology parameters [3, 4]: 63-82% | reductions of paw and six-joint mean periosteal bone widths [3, 4]: 82-83% | Histopathology Summed Scores (All Joints) [3, 5]: 11.03 (1.01) | Histopathology Summed Scores (All Joints) [3, 6]: *4.15 (1.01)

CN(Cc1cnc2nc(N)nc(N)c2n1)c1ccc(C(=O)N[C@@H](CCC(=O)O)C(=O)O)cc1 [MTX, (2S)-2-[(4-{[(2,4-Diaminopteridin-6-yl)methyl](methyl)amino}benzoyl)amino]pentanedioic acid, reference compound]
daily clinical arthritis scores over time ([2]; 0.5 mg/kg MTX alone, vs vehicle controls): differed significantly | clinical arthritis scores ([2]; 0.5 mg/kg MTX, vs vehicle controls, Days 25-29): significantly reduced | Change in Body Weight (g) Day 18-43 [2, 7]: -1.16 g | Clinical Arthritis Score AUC Day 18-43 [2, 7]: 51.72 | Clinical Arthritis Score AUC Day 28-43 [2, 7]: 48.82 | Percent Incidence [2, 7]: 100% | Change in Body Weight (g) Day 18-43 [2, 8]: -0.83 g | Clinical Arthritis Score AUC Day 18-43 [2, 8]: 46.79 | Clinical Arthritis Score AUC Day 28-43 [2, 8]: 45.51 | Percent Incidence [2, 8]: 100% | Histopathology Summed Scores (All Joints) [3, 7]: 10.24 (1.66) | Histopathology Summed Scores (All Joints) [3, 8]: 8.46 (1.36)
